Measurements: BindingDB's records for doi:10.1016/0960-894X(96)00290-9 (1996)

Experiment: Inhibition of pancreatic cholesterol esterase using p-nitrophenylacetate or cholesteryl [1-14C]-oleate as substrates

Row | IC50 [µM] | Compound
1 | 10 | CC(C)(C)[C@H]1CC[C@H](CC(=O)C(F)(F)C(F)(F)F)CC1 [1-(4-tert-Butyl-cyclohexyl)-3,3,4,4,4-pentafluoro-butan-2-one]
2 | > 100 | CCCCCCCCCCCCC(F)(F)C(=O)C[C@H]1CC[C@]2(C)CCCC[C@H]2C1 [3,3-Difluoro-1-((2S,4aS,8aS)-4a-methyl-decahydro-naphthalen-2-yl)-pentadecan-2-one]
